Data reported in US8999955B2, “Tetrahydrocyclopenta[c]acridine derivatives as kinase inhibitors and biological” (Centre National de la Recherche Scientifique, priority 2008, dated 2015).
Where “and” joins values, the source holds several entries; their conditions need not be identical. Equal entries are not always repeated.

Assays:
CDK5 = CDK5 (Homo sapiens (Human), UniProt Q00535); test: Enzyme inhibition test, radiolabeled ATP, CDK5; assay type: biochemical; settings: dose-response curves
Procedure: (§1) The tests are carried out as follows: the enzyme to be assayed was purified, for example by affinity chromatography on agarose beads. The catalytic activity was measured using radiolabeled ATP, at a standard final concentration. The test compounds were added at various concentrations making it possible to establish dose-response curves (activity of the enzyme as a function of the concentration). The IC50 values were calculated from these curves and are given in μM.

SHSY cells = test: MTS test, viability of SHSY cells; assay type: cell-based; settings: MTS reduction
Procedure: The viability of SHSY cells is determined by measuring the MTS reduction as described in (6).

CDK1 = test: Enzyme inhibition test, radiolabeled ATP, CDK1; assay type: biochemical; settings: dose-response curves
Procedure: as §1

CDK5, sequence (Q00535 whole entry, species assumed): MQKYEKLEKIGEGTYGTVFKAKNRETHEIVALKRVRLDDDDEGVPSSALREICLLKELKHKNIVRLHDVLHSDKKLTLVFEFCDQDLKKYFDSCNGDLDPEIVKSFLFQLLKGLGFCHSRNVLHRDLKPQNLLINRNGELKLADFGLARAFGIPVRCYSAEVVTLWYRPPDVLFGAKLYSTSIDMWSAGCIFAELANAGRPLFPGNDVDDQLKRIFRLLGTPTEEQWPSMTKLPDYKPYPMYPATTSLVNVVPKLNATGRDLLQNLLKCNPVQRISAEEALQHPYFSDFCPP
CDK5, sequence (Q15078 99-307 partner, species assumed): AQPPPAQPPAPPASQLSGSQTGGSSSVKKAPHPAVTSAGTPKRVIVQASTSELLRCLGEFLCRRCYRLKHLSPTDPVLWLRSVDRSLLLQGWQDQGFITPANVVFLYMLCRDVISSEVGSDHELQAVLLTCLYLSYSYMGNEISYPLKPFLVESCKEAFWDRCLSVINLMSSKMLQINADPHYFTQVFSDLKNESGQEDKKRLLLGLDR

Compound	IC50 (CDK5)	% survival of SHSY cells at 10 μM (SHSY cells) [%]	melting point [°C]	IC50 (CDK1) [µM]
C[Si](C)(C)C1=C2c3nc4ccccc4cc3C(O)CC2CC1=O (racemic) [5-Hydroxy-1-trimethylsilanyl-3,3a,4,5-tetrahydro-2H-cyclopenta[c]acridin-2-one]	1.6 to 2.3 µM	85	167 to 168	
C[Si](C)(C)C1=C2c3nc4ccccc4cc3C(O)CC2CC1=O (single isomer, unassigned) [5-hydroxy-1-trimethylsilanyl-3,3a,4,5-tetrahydro-2H-cyclopen] [5-hydroxy-1-trimethylsilanyl-3,3a,4,5-tetrahydro-2H-cyclopenta[c]acridin-2-one]	26 µM and 3 µM			
CC(=O)c1cc2ccccc2nc1C#Cc1ccccn1 [1-(2-(Pyridin-2-ylethynyl)quinolin-3-yl)ethanone]		4		
C=CC(O)c1cc2ccccc2nc1C#C[Si](C)(C)C (stereo not drawn) [1-(2-(Trimethylsilanylethynyl)quinolin-3-yl)propan-2-en-1-ol]		0.4		
C[Si](C)(C)C#Cc1nc2ccccc2cc1C(=O)CC[N+](=O)[O-] [1-(2-Trimethylsilanylethynyl)quinolin-3-yl)propan-3-nitro-1-one]		47		
C=CCC(O)c1cc2ccccc2nc1C#CCOC1CCCCO1 (stereo not drawn) [1-(2-[3-(Tetrahydropyran-2-yloxy)prop-1-ynyl]quinolin-3-yl)but-3-en-1-ol]		2		
C[Si](C)(C)C1=C2c3nc4ccccc4cc3C(Cl)CC2CC1=O (stereo not drawn) [5-Chloro-1-trimethylsilanyl-3,3a,4,5-tetrahydro-2H-cyclopenta[c]acridin-2-one]	63 µM			3.6
COc1cc2cc3c(nc2cc1OC)C1=C([Si](C)(C)C)C(=O)CC1CC3O (stereo not drawn) [5-Hydroxy-8,9-dimethoxy-1-trimethylsilanyl-3,3a,4,5-tetrahydro-2H-cyclopenta[c]acridin-2-one]	3.3 µM		221 to 222	1.7
COc1ccc2nc3c(cc2c1)C(O)CC1CC(=O)C([Si](C)(C)C)=C31 (stereo not drawn) [5-Hydroxy-8-methoxy-1-trimethylsilanyl-3,3a,4,5-tetrahydro-2H-cyclopenta[c]acridin-2-one]	4 µM		186	1.7
COc1ccc2cc3c(nc2c1)C1=C([Si](C)(C)C)C(=O)CC1CC3O (stereo not drawn) [5-Hydroxy-9-methoxy-1-trimethylsilanyl-3,3a,4,5-tetrahydro-2H-cyclopenta[c]acridin-2-one]	4.8 µM	44	187	1.6
CCCCC1=C2c3nc4ccccc4cc3C(=O)CC2CC1=O (stereo not drawn) [5-Keto-1-butyl-3,3a,4,5-tetrahydro-2H-cyclopenta[c]acridin-2-one]		38		
